{"source": "paper PMC5513037", "about": "“Examining the influence of specificity ligands and ATP-competitive ligands on the overall effectiveness of bivalent kinase inhibitors” (Proteome Science, 2017)", "assay_in_all_cases": "KAM-matrix competition in K562 lysate;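 on 0.001 uM KAM: median log10 fold change of treatment over DMSO control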;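 on 0.01 uM KAM: median log10 fold change of treatment over DMSO control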;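 on 0.1 uM KAM: median log10 fold change of treatment over DMSO control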;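 on 1 uM KAM: median log10 fold change of treatment over DMSO control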;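 on 10 uM KAM: median log10 fold change of treatment over DMSO control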", "type_in_all_cases": "binding", "key": {"[1]": {"molecular_target": "T1, PEAK1 (Homo sapiens, UniProt Q9H792)", "T1 construct": "endogenous in cells; host or cells: K562", "T1 sequence (Q9H792 whole entry)": "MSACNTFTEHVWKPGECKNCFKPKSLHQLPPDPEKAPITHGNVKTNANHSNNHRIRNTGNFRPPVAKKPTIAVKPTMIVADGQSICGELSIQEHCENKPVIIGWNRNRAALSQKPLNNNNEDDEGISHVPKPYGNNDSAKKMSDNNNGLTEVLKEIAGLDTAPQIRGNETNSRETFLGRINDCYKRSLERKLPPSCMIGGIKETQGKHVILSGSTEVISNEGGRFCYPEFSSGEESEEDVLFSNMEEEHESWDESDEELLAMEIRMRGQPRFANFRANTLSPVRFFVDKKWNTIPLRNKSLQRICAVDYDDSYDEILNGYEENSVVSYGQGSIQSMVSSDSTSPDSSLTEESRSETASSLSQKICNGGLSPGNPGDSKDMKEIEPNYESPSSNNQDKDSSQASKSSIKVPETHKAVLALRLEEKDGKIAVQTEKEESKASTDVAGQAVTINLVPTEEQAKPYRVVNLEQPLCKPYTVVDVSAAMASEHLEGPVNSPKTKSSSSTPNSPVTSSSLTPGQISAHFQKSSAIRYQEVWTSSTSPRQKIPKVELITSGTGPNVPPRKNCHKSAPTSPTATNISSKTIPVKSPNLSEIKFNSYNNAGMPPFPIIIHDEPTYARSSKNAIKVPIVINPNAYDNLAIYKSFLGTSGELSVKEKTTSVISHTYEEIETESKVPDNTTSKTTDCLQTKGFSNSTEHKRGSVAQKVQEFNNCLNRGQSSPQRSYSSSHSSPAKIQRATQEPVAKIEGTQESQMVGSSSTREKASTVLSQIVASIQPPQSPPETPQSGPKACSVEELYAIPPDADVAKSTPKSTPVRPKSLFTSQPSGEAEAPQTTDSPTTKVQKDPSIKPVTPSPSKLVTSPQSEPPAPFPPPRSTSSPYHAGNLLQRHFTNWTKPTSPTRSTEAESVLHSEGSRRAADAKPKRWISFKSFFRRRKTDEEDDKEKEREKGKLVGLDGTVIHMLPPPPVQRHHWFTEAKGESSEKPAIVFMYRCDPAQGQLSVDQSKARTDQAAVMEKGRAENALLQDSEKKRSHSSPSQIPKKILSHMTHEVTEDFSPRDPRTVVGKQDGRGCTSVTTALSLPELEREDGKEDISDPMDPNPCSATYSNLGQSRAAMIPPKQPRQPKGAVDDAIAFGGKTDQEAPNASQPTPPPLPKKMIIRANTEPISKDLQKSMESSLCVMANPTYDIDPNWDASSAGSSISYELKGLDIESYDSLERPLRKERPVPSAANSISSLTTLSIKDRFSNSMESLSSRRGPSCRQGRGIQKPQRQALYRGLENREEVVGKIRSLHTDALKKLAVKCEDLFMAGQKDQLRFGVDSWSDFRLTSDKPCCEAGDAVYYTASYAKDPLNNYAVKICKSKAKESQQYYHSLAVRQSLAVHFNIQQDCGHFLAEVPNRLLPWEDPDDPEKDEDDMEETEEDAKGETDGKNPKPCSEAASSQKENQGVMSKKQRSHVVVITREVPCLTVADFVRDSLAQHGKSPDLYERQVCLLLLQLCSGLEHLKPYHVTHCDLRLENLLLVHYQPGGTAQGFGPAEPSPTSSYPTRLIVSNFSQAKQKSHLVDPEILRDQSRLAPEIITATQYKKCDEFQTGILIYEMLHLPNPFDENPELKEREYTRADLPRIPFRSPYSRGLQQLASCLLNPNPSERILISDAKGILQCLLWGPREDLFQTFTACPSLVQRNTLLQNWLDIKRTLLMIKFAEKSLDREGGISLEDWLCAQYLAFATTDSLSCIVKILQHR", "protocol": "(§1) Supplement 12953_2017_125_MOESM1_ESM.zip/MS_Supp Info.xlsx, sheet \"KAM\" | column: 10 uM KAM; 1 uM KAM; 0.1 uM KAM; 0.01 uM KAM; 0.001 uM KAM; RB50"}, "[2]": {"molecular_target": "T2, TRIM28 (Homo sapiens, UniProt Q13263)", "T2 construct": "endogenous in cells; host or cells: K562", "T2 sequence (Q13263 whole entry)": "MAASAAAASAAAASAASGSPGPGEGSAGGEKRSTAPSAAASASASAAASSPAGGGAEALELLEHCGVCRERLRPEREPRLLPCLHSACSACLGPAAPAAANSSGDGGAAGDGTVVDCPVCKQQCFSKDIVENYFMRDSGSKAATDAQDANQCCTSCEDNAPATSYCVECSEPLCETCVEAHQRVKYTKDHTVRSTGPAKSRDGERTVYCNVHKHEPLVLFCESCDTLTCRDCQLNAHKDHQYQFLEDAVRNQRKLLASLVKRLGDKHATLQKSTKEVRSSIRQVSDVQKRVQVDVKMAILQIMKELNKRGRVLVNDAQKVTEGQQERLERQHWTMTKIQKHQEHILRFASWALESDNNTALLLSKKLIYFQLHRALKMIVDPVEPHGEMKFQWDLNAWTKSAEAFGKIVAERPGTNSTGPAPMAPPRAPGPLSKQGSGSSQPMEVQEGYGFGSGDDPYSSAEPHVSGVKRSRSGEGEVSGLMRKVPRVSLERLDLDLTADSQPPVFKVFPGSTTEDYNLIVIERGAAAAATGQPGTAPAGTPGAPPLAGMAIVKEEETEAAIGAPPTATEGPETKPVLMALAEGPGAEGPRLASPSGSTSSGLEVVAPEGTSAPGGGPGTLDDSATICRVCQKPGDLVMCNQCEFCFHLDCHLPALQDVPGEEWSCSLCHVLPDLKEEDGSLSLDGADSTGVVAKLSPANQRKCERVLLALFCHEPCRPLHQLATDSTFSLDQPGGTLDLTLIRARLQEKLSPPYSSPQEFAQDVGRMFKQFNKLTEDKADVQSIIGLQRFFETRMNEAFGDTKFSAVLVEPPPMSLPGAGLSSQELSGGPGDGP", "protocol": "as §1"}, "[3]": {"molecular_target": "T3, UHMK1 (Homo sapiens, UniProt Q8TAS1)", "T3 construct": "endogenous in cells; host or cells: K562", "T3 sequence (Q8TAS1 1-419)": "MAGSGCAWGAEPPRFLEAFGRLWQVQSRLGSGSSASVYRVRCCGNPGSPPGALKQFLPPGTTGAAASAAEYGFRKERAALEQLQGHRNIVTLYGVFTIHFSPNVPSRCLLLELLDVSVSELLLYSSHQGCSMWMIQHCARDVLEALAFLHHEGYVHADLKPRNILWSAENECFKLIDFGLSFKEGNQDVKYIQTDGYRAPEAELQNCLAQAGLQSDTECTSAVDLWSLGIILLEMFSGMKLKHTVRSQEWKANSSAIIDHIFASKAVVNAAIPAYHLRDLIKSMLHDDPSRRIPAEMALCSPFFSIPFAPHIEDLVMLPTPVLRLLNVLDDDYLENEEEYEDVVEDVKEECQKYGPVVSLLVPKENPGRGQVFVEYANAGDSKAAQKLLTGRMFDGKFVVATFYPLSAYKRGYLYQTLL", "protocol": "as §1"}, "[4]": {"molecular_target": "T4, CIT (Homo sapiens, UniProt O14578)", "T4 construct": "endogenous in cells; host or cells: K562 lysate", "T4 sequence (O14578 whole entry)": "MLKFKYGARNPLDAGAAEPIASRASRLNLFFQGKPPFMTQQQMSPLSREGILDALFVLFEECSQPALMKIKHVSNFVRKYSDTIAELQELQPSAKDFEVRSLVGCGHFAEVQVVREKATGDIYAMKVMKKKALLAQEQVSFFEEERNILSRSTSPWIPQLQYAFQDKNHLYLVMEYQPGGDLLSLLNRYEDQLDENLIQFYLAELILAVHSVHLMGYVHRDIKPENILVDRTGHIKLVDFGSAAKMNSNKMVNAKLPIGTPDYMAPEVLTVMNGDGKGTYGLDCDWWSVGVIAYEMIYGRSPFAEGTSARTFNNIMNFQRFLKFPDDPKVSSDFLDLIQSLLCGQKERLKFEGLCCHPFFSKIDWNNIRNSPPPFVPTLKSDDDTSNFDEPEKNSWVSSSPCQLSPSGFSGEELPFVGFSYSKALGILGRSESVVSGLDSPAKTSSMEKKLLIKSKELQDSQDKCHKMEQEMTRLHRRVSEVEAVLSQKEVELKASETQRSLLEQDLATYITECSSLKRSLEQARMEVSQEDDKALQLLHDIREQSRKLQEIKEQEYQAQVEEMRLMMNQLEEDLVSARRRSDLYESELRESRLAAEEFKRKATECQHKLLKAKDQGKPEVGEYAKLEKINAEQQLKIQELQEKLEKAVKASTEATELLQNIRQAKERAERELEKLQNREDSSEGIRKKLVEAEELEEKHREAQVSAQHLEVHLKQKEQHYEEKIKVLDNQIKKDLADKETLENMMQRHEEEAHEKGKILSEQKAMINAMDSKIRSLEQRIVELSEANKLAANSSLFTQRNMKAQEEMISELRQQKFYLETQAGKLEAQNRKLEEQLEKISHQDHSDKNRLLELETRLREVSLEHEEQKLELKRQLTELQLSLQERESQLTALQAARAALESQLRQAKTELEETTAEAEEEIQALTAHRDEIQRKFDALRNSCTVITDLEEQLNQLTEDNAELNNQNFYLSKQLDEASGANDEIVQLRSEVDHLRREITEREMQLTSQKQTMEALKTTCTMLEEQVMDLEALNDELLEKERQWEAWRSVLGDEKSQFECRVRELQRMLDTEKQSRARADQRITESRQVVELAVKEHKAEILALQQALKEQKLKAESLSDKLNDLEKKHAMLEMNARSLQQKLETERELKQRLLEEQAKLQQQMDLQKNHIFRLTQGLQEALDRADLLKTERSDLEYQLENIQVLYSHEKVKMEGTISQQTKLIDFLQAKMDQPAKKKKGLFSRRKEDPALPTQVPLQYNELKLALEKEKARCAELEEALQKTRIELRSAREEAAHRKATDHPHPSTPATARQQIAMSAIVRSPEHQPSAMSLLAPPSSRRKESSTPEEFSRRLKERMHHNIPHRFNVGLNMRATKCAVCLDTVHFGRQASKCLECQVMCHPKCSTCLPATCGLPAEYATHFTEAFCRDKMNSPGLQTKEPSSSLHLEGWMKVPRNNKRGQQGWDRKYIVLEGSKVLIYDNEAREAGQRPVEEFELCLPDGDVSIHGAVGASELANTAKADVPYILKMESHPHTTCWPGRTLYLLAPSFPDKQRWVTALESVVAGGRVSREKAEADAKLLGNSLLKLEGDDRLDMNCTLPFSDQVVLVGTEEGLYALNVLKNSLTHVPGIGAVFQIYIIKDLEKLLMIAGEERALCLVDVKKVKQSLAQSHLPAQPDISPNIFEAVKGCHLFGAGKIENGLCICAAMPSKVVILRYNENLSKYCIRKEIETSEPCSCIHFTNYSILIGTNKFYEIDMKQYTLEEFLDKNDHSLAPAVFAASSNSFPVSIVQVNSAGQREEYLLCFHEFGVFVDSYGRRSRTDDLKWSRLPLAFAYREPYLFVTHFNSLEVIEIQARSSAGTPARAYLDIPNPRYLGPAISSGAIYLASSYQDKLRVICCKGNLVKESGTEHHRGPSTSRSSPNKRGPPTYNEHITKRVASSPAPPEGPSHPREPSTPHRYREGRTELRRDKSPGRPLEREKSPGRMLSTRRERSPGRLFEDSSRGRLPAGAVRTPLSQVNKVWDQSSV", "protocol": "as §1"}, "[5]": {"molecular_target": "T5, EPHB6 (Homo sapiens, UniProt O15197)", "T5 construct": "endogenous in cells; host or cells: K562", "T5 sequence (O15197 32-1021)": "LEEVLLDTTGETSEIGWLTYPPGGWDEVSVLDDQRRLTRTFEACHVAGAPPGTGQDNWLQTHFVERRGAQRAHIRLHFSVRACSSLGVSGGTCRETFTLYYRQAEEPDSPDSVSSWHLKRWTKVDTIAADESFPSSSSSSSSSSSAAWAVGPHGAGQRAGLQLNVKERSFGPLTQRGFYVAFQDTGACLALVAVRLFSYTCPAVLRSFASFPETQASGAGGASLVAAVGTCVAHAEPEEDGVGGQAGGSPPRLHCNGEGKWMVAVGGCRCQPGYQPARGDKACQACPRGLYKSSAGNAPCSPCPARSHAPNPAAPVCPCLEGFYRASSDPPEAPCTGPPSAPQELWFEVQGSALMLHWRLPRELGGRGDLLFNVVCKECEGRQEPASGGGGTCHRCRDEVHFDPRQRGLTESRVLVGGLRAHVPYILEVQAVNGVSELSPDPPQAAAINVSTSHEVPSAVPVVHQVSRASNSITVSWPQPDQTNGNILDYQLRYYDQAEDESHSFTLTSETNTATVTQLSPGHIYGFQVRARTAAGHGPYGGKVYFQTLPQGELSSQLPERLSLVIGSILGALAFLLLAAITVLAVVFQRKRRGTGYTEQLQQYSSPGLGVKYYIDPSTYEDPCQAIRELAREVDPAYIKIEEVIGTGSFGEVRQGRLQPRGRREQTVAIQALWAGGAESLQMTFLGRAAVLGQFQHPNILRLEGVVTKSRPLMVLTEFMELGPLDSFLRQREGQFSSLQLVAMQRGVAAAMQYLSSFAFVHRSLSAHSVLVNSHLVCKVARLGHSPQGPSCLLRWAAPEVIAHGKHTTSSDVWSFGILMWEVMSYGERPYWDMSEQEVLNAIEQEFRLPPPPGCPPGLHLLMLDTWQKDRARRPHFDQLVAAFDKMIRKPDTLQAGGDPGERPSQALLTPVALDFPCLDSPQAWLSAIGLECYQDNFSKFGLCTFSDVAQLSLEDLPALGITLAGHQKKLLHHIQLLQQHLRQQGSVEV", "protocol": "as §1"}, "[6]": {"molecular_target": "T6, PAK2 (Homo sapiens, UniProt Q13177)", "T6 construct": "endogenous in cells; host or cells: K562", "T6 sequence (Q13177 whole entry)": "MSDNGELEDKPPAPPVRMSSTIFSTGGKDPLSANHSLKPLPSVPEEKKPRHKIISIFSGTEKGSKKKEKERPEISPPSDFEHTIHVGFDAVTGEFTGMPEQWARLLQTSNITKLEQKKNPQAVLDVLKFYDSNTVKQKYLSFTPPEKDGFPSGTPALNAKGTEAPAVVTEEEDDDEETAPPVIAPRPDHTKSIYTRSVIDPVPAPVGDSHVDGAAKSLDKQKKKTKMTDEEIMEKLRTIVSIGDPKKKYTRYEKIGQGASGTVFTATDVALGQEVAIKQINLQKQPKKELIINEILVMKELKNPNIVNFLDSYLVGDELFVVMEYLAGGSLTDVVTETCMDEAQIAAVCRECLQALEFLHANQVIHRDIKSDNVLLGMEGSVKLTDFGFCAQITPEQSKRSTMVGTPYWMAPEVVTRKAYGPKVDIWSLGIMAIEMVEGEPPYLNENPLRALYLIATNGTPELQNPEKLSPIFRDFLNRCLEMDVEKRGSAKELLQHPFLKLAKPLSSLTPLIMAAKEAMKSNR", "protocol": "as §1"}, "[7]": {"conditions": "KAM 0.001-10 uM, read-out: RB50 (the source's name)"}}}
{"compound": "N#CCc1ccc(Nc2nc(NCCCN)cc(Nc3cc(C4CC4)[nH]n3)n2)cc1", "note": "[KAM]", "values": [{"measurement": "IC50", "setting": "[1]; [7]", "value": "> 10", "unit": "µM"}, {"measurement": "0.001 uM KAM", "setting": "[1]; relative to 0 uM KAM = 0", "value": 0.04051}, {"measurement": "0.01 uM KAM", "setting": "[1]; relative to 0 uM KAM = 0", "value": 0.04298}, {"measurement": "0.1 uM KAM", "setting": "[1]; relative to 0 uM KAM = 0", "value": 0.03477}, {"measurement": "1 uM KAM", "setting": "[1]; relative to 0 uM KAM = 0", "value": 0.09337}, {"measurement": "10 uM KAM", "setting": "[1]; relative to 0 uM KAM = 0", "value": 0.04238}, {"measurement": "IC50", "setting": "[2]; [7]", "value": "> 10", "unit": "µM"}, {"measurement": "0.001 uM KAM", "setting": "[2]; relative to 0 uM KAM = 0", "value": 0.05535}, {"measurement": "0.01 uM KAM", "setting": "[2]; relative to 0 uM KAM = 0", "value": 0.00293}, {"measurement": "0.1 uM KAM", "setting": "[2]; relative to 0 uM KAM = 0", "value": 0.1066}, {"measurement": "1 uM KAM", "setting": "[2]; relative to 0 uM KAM = 0", "value": 0.08268}, {"measurement": "10 uM KAM", "setting": "[2]; relative to 0 uM KAM = 0", "value": 0.08032}, {"measurement": "IC50", "setting": "[3]; [7]", "value": "> 10", "unit": "µM"}, {"measurement": "0.001 uM KAM", "setting": "[3]; relative to 0 uM KAM = 0", "value": -0.05175}, {"measurement": "0.01 uM KAM", "setting": "[3]; relative to 0 uM KAM = 0", "value": -0.019}, {"measurement": "0.1 uM KAM", "setting": "[3]; relative to 0 uM KAM = 0", "value": 0.009765}, {"measurement": "1 uM KAM", "setting": "[3]; relative to 0 uM KAM = 0", "value": -0.08212}, {"measurement": "10 uM KAM", "setting": "[3]; relative to 0 uM KAM = 0", "value": -0.08774}, {"measurement": "IC50", "setting": "[4]; [7]", "value": "> 10", "unit": "µM"}, {"measurement": "0.001 uM KAM", "setting": "[4]; relative to 0 uM KAM = 0", "value": -0.03357}, {"measurement": "0.01 uM KAM", "setting": "[4]; relative to 0 uM KAM = 0", "value": -0.05687}, {"measurement": "0.1 uM KAM", "setting": "[4]; relative to 0 uM KAM = 0", "value": -0.1025}, {"measurement": "1 uM KAM", "setting": "[4]; relative to 0 uM KAM = 0", "value": -0.03677}, {"measurement": "10 uM KAM", "setting": "[4]; relative to 0 uM KAM = 0", "value": -0.04946}, {"measurement": "median Log10 fold change", "setting": "[5]; 0.001 uM KAM", "value": -0.01655}, {"measurement": "median Log10 fold change", "setting": "[5]; 0.01 uM KAM", "value": -0.02112}, {"measurement": "median Log10 fold change", "setting": "[5]; 0.1 uM KAM", "value": -0.1129}, {"measurement": "median Log10 fold change", "setting": "[5]; 1 uM KAM", "value": -0.2258}, {"measurement": "median Log10 fold change", "setting": "[5]; 10 uM KAM", "value": -0.3985}, {"measurement": "IC50", "setting": "[5]; read-out: RB50 (the source's name)", "value": 2.51, "unit": "µM"}, {"measurement": "IC50", "setting": "[6]; [7]", "value": "> 10", "unit": "µM"}, {"measurement": "0.001 uM KAM", "setting": "[6]; relative to 0 uM KAM = 0", "value": 0.07363}, {"measurement": "0.01 uM KAM", "setting": "[6]; relative to 0 uM KAM = 0", "value": 0.03748}, {"measurement": "0.1 uM KAM", "setting": "[6]; relative to 0 uM KAM = 0", "value": 0.116}, {"measurement": "1 uM KAM", "setting": "[6]; relative to 0 uM KAM = 0", "value": 0.1461}, {"measurement": "10 uM KAM", "setting": "[6]; relative to 0 uM KAM = 0", "value": 0.07777}]}
